Here are results for 28 compounds from patent US10287271B2, “Indole compounds having antiprotozoal activity and its use as well as methods for producing the same” (TECHNISCHE UNIVERSITAET BRAUNSCHWEIG, priority 2015, dated 2019).

This test has as its system NF54-luc P. falciparum. The experiment in a line: luciferase-based viability assay, erythrocytic stages of transgenic NF54-luc P. falciparum. It counts as cell-based, Plasmodium falciparum. The conditions noted are these: for inhibition at 3 µM / inhibition at 30 µM / EC50: Plasmodium falciparum; for inhibition at 3 µM / inhibition at 30 µM: NF54, 48 hours; for inhibition at 3 µM: 3 μM test compound; for inhibition at 30 µM: 30 μM test compound; for EC50: erythrocytic stages NF54-luc, 48 hours incubation, titration. As for the experimental part:
Erythrocytic stages of transgenic NF54-luc P. falciparum were used for the luciferase-based viability assay. First, the culture was dispensed in triplicate into white 96-well flat bottom plates (each well contains 250 ul) (NUNC, Denmark) with parasitemia of 0.5-1%. Then the cultures were incubated in the presence of a 30 μM concentration of the test compounds for 48 hours (37° C., 90% N2, 5% CO2, and 5% O2). Subsequently, 100 ul RPMI1640 media was removed from each well and a 100 μL volume of the Bright-Glo® substrate solution was added to each well. One of the cleavage products of the reaction is light, which was measured by a FLUOROSKAN FL luminometer (Thermo) machine; thereby detecting the amount of living parasites. In case the inhibition of the proliferation exceeded 50%, the experiments were repeated with 3 μM solutions. […] The EC50 value is the half maximal effective concentration (the concentration at which half maximal inhibition is observed). Untreated cultures were used as negative controls and to calculate the inhibition rate (0% inhibition of parasite growth). Blasticidin (Sigma-Aldrich, St. Louis, Mo.), a drug used for selection of transfected parasites, was included as a positive control on each plate and gave >90% inhibition of parasite growth at 2 μg/mL.

Turning to `CN(CC[C@H](N)CC(=O)N[C@H]1C=C[C@H](n2ccc(N)nc2=O)O[C@@H]1C(=O)O)C(=N)N` [Blasticidin, reference compound], the “inhibition of parasite growth” value (positive control at 2 μg/mL) was above 90%.

For the compound `O=c1c(-c2c(-c3ccccc3)[nH]c3ccccc23)c(-c2c(-c3ccccc3)[nH]c3ccccc23)c1=O` [KuHL009, 3,4-Bis(2-phenyl-1H-indol-3-yl)cyclobut-3-ene-1,2-dione], the inhibition (commonly the share of the control response that was lost under treatment) at 3 µM was 41.1 ± 0.6%; at 30 µM the inhibition was 98.9 ± 0.8%; the EC50 (as a rule, the concentration needed to bring the measured effect to its halfway point) was 2.47 µM.

The compound `Cc1[nH]c2ccccc2c1-c1c(-c2c(C)[nH]c3ccccc23)c(=O)c1=O` [KuHL012, 3,4-Bis(2-methyl-1H-indol-3-yl)cyclobut-3-ene-1,2-dione] showed an inhibition at 3 µM of 18.3 ± 6.3% and an inhibition at 30 µM of 77.8 ± 5.9%.

Compound `COc1ccc2[nH]cc(-c3c(-c4c(C)[nH]c5ccccc45)c(=O)c3=O)c2c1` [KuHL018, 3-(5-Methoxy-1H-indol-3-yl)-4-(2-methyl-1H-indol-3-yl)cyclobut-3-en-1,2-dione] displayed an inhibition at 3 µM of 34.2 ± 8%, an inhibition at 30 µM of 99.6 ± 0.2% and an EC50 of 10 µM.

As for `Cc1[nH]c2ccccc2c1-c1c(-c2c[nH]c3ccccc23)c(=O)c1=O` [KuHL025, 3-(1H-Indol-3-yl)-4-(2-methyl-1H-indol-3-yl)cyclobut-3-ene-1,2-dione], the inhibition at 3 µM was 23.4 ± 5.4%, the inhibition at 30 µM was 98.8 ± 0.5% and the concentration for a half-maximal effect (EC50) is above 30 µM.

`Cc1[nH]c2ccccc2c1-c1c(-c2c(-c3ccccc3)[nH]c3ccccc23)c(=O)c1=O` [KuHL026, 3-(2-Methyl-1H-indol-3-yl)-4-(2-phenyl-1H-indol-3-yl)cyclobut-3-ene-1,2-dione] displayed an inhibition at 3 µM of 41.1 ± 1.7%, an inhibition at 30 µM of 98.4 ± 0.5% and an EC50 of 9.26 µM.

As for `Cc1[nH]c2ccccc2c1-c1c(-c2c[nH]c3ccc(Br)cc23)c(=O)c1=O` [KuHL027, 3-(5-Bromo-1H-indol-3-yl)-4-(2-methyl-1H-indol-3-yl)cyclobut-3-ene-1,2-dione], the inhibition at 3 µM amounted to 45.6 ± 1.8%, the inhibition at 30 µM amounted to 99.3 ± 0.4% and it took 30.5 µM to reach a half-maximal effect (EC50).

The compound `Cn1cc(-c2c(-c3c[nH]c4ccccc34)c(=O)c2=O)c2ccccc21` [KuHL032, 3-(1H-Indol-3-yl)-4-(1-methyl-1H-indol-3-yl)cyclobut-3-ene-1,2-dione] had an inhibition at 3 µM of 52 ± 1.8%, an inhibition at 30 µM of 98.7 ± 1.1% and an EC50 of 2.97 µM.

In the case of `O=c1c(-c2c[nH]c3ccccc23)c(-c2c[nH]c3ccc(Br)cc23)c1=O` [KuHL037, 3-(5-Bromo-1H-indol-3-yl)-4-(1H-indol-3-yl)cyclobut-3-ene-1,2-dione], the inhibition at 3 µM amounted to 65.9 ± 1.8%, the inhibition at 30 µM came to 99.5 ± 0.4% and the EC50 was 3.02 µM.

`O=c1c(-c2c[nH]c3ccccc23)c(-c2c[nH]c3ccccc23)c1=O` [KuHL043, 3,4-Bis(1H-indol-3-yl)cyclobut-3-ene-1,2-dione] displayed an inhibition at 3 µM of 17.9 ± 3.3%, an inhibition at 30 µM of 99.2 ± 0.2% and a concentration giving a half-maximal response (EC50) of 8.33 µM.

In the case of `O=c1c(-c2c[nH]c3ccccc23)c(-c2c(-c3ccccc3)[nH]c3ccccc23)c1=O` [KuHL044, 3-(1H-Indol-3-yl)-4-(2-phenyl-1H-indol-3-yl)cyclobut-3-ene-1,2-dione], testing at 3 µM gave an inhibition of 65 ± 2.8%, the inhibition at 30 µM is 99.7 ± 0.1% and it took 6.38 µM to reach a half-maximal effect (EC50).

The compound `COc1ccc2[nH]cc(-c3c(-c4c[nH]c5ccc(Br)cc45)c(=O)c3=O)c2c1` [KuHL047, 3-(5-Bromo-1H-indol-3-yl)-4-(5-methoxy-1H-indol-3-yl)cyclobut-3-ene-1,2-dione] registered an inhibition at 3 µM of 100%, an inhibition at 30 µM of 98.8 ± 0.7% and an EC50 of 0.47 µM.

For the compound `COc1ccc2[nH]cc(-c3c(-c4c[nH]c5ccc(OC)cc45)c(=O)c3=O)c2c1` [KuHL048, 3,4-Bis(5-methoxy-1H-indol-3-yl)cyclobut-3-ene-1,2-dione], at 3 µM the inhibition was 19.7 ± 3.6% and the inhibition at 30 µM amounted to 79.3 ± 1.3%.

`COc1ccc2[nH]cc(-c3c(-c4c[nH]c5ccccc45)c(=O)c3=O)c2c1` [KuHL049, 3-(1H-Indol-3-yl)-4-(5-methoxy-1H-indol-3-yl)cyclobut-3-ene-1,2-dione] had an inhibition at 3 µM of 18.3 ± 5%.

Turning to `Cc1[nH]c2ccccc2c1-c1c(-c2cn(C)c3ccccc23)c(=O)c1=O` [KuHL050, 3-(1-Methyl-1H-indol-3-yl)-4-(2-methyl-1H-indol-3-yl)cyclobut-3-ene-1,2-dione], the inhibition at 3 µM came to 59.6 ± 0.2%, the inhibition at 30 µM worked out at 99.3 ± 0.3% and a half-maximal response (EC50) required 2.67 µM.

`COc1ccc2[nH]cc(-c3c(-c4cn(C)c5ccccc45)c(=O)c3=O)c2c1` [KuHL057, 3-(5-Methoxy-1H-indol-3-yl)-4-(1-methyl-1H-indol-3-yl)cyclobut-3-ene-1,2-dione] displayed an inhibition at 30 µM of 13.6 ± 3.9%.

Take `COc1ccc2[nH]cc(-c3c(-c4c(-c5ccccc5)[nH]c5ccccc45)c(=O)c3=O)c2c1` [KuHL058, 3-(5-Methoxy-1H-indol-3-yl)-4-(2-phenyl-1H-indol-3-yl)cyclobut-3-ene-1,2-dione]: 3 µM produced 22.4 ± 2.7% inhibition.

Compound `O=c1c(-c2c[nH]c3ccc(Br)cc23)c(-c2c(-c3ccccc3)[nH]c3ccccc23)c1=O` [KuHL071, 3-(5-Bromo-1H-indol-3-yl)-4-(2-phenyl-1H-indol-3-yl)cyclobut-3-ene-1,2-dione] displayed an inhibition at 3 µM of 16 ± 0.7%.

`Cn1cc(-c2c(-c3c(-c4ccccc4)[nH]c4ccccc34)c(=O)c2=O)c2ccccc21` [KuHL072, 3-(1-Methyl-1H-indol-3-yl)-4-(2-phenyl-1H-indol-3-yl)cyclobut-3-ene-1,2-dione] returned an inhibition at 3 µM of 67.7 ± 0.7% and an EC50 of 1.72 µM.

With `Cc1[nH]c2ccccc2c1-c1c(-c2cn(C)c3ccc(Br)cc23)c(=O)c1=O` [KuHL077, 3-(5-Bromo-1-methyl-1H-indol-3-yl)-4-(2-methyl-1H-indol-3-yl)cyclobut-3-ene-1,2-dione], the inhibition at 3 µM is 12.7 ± 2.8%.

In the case of `COc1ccc2[nH]cc(-c3c(-c4c[nH]c5ccc(I)cc45)c(=O)c3=O)c2c1` [KuHL101, 3-(5-Iodo-1H-indol-3-yl)-4-(5-methoxy-1H-indol-3-yl)cyclobut-3-ene-1,2-dione], the inhibition at 3 µM was 99.1 ± 0.4% and the EC50 turned out to be 0.65 µM.

The compound `COc1ccc2[nH]cc(-c3c(-c4c[nH]c5ccc(Cl)cc45)c(=O)c3=O)c2c1` [KuHL102, 3-(5-Chloro-1H-indol-3-yl)-4-(5-methoxy-1H-indol-3-yl)cyclobut-3-ene-1,2-dione] came in with an inhibition at 3 µM of 87 ± 0.5% and an EC50 of 1.52 µM.

Consider `COc1ccc2[nH]cc(-c3c(-c4c[nH]c5ccc(C#N)cc45)c(=O)c3=O)c2c1` [KuHL103, 3-[2-(5-Methoxy-1H-indol-3-yl)-3,4-dioxocyclobut-1-ene-1-yl]-1H-indol-5-carbonitrile], for which the inhibition at 3 µM came out at 26.8 ± 1.1%.

In turn, `COc1ccc2[nH]cc(-c3c(-c4c[nH]c5ccc(F)cc45)c(=O)c3=O)c2c1` [KuHL113, 3-(5-Fluoro-1H-indol-3-yl)-4-(5-methoxy-1H-indol-3-yl)cyclobut-3-ene-1,2-dione] gave an inhibition at 3 µM of 19.3 ± 3.1%.

With `O=c1c(-c2c[nH]c3ccccc23)c(-c2c[nH]c3ccc(I)cc23)c1=O` [KuHL117, 3-(1H-indol-3-yl)-4-(5-iodo-1H-indol-3-yl)cyclobut-3-ene-1,2-dione], the inhibition at 3 µM was found to be 31.3 ± 2.7%.

`O=c1c(-c2c[nH]c3ccccc23)c(-c2c[nH]c3ccc(Cl)cc23)c1=O` [KuHL118, 3-(5-Chloro-1H-indol-3-yl)-4-(1H-indol-3-yl)cyclobut-3-ene-1,2-dione] came in with an inhibition at 3 µM of 44.7 ± 0.5%.

Regarding `N#Cc1ccc2[nH]cc(-c3c(-c4c[nH]c5ccccc45)c(=O)c3=O)c2c1` [KuHL122, 3-[2-(1H-Indol-3-yl)-3,4-dioxocyclobut-1-ene-1-yl]-1H-indol-5-carbonitrile], at 3 µM the inhibition was 26.8 ± 1.6%.

`COc1ccc2[nH]cc(-c3c(-c4c[nH]c5ccc(OCc6ccccc6)cc45)c(=O)c3=O)c2c1` [KuHL136, 3-[5-(Benzyloxy)-1H-indol-3-yl]-4-(5-methoxy-1H-indol-3-yl)cyclobut-3-ene-1,2-dione] returned an inhibition at 3 µM of 21.7 ± 2.5%.
